Where “and” joins values, the source holds several entries; their conditions need not be identical. Identical values can stand only once. Like-named read-outs stand apart in the source and are kept apart here.
Assays:
[1] = system: CYP2B6 mRNA; assay: CYP induction, mRNA, primary cultured human hepatocytes; details: primary cultured human hepatocytes, Fold Induction (CYP2B6 mRNA expression)
From the text: (§2) Rifampicin as a positive control and solvent (0.1% DMSO) vehicle control were also included. The acceptance criteria for CYP induction was ≥ 2-fold induction for significant CYP activity, while the acceptance criteria for CYP mRNA was ≥ 4-fold for significant CYP induction.

[2] = system: CYP2B6; assay: as above; details: primary cultured human hepatocytes, Fold Induction (CYP2B6 mRNA expression)
From the text: as §2

[3] = system: CYP1A2; assay: CYP induction, in situ catalytic activity, human hepatocytes; type: in vitro ADME
From the text: as §2

[4] = target: T1, MATE1 (Homo sapiens, UniProt Q96FL8); assay: Transporter mediated assay (substrate/inhibitor), MDCK-II cells; type: in vitro ADME
T1 construct: expressed in transfected cells; host or cells: MDCK-II cells
T1 sequence (Q96FL8 1-570): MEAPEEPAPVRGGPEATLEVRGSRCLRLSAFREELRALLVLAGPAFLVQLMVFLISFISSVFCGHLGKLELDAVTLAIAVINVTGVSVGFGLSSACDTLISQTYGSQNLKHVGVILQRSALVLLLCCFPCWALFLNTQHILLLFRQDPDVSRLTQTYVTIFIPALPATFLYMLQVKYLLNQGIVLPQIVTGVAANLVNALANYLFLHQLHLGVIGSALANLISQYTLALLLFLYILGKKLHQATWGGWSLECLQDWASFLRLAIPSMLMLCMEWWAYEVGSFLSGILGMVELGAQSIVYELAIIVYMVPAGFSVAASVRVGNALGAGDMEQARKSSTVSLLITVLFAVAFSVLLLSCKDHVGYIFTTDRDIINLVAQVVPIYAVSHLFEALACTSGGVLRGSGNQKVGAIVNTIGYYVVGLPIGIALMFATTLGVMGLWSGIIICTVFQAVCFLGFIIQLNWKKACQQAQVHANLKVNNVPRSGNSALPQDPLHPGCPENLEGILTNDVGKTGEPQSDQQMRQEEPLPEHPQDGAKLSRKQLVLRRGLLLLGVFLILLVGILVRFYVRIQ
Procedure: The MDCK-II cells were treated to express the transporter of interest. The transport of each probe substrate was determined by radiometric detection (Fig 1 in S1 File). […] For the uptake assay, the net transporter-mediated uptake-rate (V) of the substrate by each SLC transporter was calculated as follows: Transporter–mediatedupdaterate(pmol/min/cm^2)=(Cellularaccumulationincellsexpressingthetransporter)−(Meancellularaccumulationincontrolcells)/Surfacearea×incubationtime
Fold of activity and percent inhibition were determined as follows: Foldofactivity=(Meanuptakerate)transporterexpressingcells/(Meanuptakerate)controlcells Percentinhibition=100−100×(Transport‐mediatedupdaterate)withinhibitor/(Transport‐mediatedupdaterate)vehiclecontrol

[5] = target: CYP2C19 (Homo sapiens, UniProt P33261); assay: CYP inhibition in human liver microsomes; details: human liver microsomes
CYP2C19, sequence (P33261 whole entry): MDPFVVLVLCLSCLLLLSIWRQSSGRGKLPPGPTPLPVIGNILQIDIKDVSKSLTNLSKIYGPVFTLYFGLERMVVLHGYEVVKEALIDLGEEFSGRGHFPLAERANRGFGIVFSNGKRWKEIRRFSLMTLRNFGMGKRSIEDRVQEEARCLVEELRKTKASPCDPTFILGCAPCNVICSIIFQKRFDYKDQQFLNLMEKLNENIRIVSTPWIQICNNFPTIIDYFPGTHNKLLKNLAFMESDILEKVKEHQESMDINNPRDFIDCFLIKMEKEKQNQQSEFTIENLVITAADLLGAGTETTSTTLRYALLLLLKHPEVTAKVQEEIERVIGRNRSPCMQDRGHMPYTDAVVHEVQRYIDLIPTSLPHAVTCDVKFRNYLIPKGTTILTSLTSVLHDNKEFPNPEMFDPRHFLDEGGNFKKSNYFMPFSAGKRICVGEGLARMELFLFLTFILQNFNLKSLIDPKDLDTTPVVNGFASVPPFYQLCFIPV

[6] = Plasma protein binding, Sephadex G-25 gel filtration; type: in vitro ADME, human; details: human, plasma; for fraction unbound at 2 h, 0.5 μM: human plasma, nominal 0.5 μM
Procedure: (§1) The gel filtration used solid-phase extraction columns containing hydrated gel filtration beads (Sephadex G-25). […] In this method, the amount of analyte accompanying the proteins (i.e., protein-bound R-VK4-116) before and after filtration was assayed for analyte concentration by LC-MS/MS.

[7] = system: plasma proteins; assay: as above; type: in vitro ADME, human; details: human, plasma, human plasma, nominal 1 μM; read-out: % Bound, Mean ± SD (converted)
Procedure: as §1

[8] = system: human plasma proteins; assay: as above; type: in vitro ADME; details: human plasma
Procedure: as §1

[9] = target: T2, hGABAA∞1β2γ2 (Homo sapiens, UniProt P14867+P18507+P47870); assay: IonFlux HT electrophysiological assay; type: cell-based; details: 10 μM
T2 construct: Eurofins Cerep (France) and Eurofins Discovery (St. Charles, MO)
T2 sequence (P14867 28-456): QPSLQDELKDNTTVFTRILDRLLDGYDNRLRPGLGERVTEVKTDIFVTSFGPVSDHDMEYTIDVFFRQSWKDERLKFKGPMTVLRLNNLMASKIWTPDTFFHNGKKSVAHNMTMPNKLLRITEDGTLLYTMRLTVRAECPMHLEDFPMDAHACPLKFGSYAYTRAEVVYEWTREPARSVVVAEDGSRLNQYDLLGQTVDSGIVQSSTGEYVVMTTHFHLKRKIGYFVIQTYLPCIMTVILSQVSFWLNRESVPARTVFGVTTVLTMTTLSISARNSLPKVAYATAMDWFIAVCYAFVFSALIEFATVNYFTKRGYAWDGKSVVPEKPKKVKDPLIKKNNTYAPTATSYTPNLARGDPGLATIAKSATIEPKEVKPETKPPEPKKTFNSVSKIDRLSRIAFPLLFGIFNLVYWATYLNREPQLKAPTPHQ
T2 sequence (P47870 25-512 limits assumed): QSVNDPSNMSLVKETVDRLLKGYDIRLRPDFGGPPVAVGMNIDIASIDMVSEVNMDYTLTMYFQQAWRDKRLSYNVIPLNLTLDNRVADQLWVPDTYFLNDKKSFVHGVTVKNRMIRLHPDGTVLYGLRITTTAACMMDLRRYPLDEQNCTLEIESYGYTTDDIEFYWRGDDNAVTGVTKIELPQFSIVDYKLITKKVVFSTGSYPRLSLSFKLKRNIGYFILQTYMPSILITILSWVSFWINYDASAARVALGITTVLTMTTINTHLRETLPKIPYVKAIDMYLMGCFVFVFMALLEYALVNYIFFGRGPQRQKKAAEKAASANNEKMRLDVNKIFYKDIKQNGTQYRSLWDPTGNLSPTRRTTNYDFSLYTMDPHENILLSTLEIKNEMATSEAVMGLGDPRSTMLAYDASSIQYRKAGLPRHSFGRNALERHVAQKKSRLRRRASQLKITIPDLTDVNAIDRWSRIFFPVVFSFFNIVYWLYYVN
T2 sequence (P18507 40-475): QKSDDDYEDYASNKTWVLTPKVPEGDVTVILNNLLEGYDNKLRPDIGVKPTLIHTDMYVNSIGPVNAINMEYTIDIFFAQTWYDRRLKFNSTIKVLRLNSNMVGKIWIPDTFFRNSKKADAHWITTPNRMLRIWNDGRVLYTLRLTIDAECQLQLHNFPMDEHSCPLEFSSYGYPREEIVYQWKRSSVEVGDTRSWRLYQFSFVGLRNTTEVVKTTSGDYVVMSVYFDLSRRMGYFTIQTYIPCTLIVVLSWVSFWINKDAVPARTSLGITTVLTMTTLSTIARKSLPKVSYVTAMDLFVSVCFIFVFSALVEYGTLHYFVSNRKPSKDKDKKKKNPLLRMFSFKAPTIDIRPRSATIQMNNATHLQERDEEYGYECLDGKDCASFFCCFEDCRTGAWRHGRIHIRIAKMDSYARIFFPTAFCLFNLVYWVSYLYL
Procedure: Electrophysiological assays were also conducted to profile R-VK4-116 for activities on ion channel targets. The QPatch HT (patch clamp) measured the agonist or antagonist activity of R-VK4-116 on ion channels. For these assays, the voltage was used as the ligand to activate the channel and induce a measurable current. The IonFlux HT measured the agonist, antagonist, or PAM activity of R-VK4-116 on ligand-gated ion channels. For these assays, GABA or Acetylcholine (ACh) was used as the ligand to activate the channel and induce measurable current. The six ion channels tested at 10 μM of R-VK4-116 in replicate were hNav1.5 Peak, hERG, hKCNQ1/minK, hCav1.2, hGABAA∞1/β2g2 and hnAChR∞4/β2.

Q: Which fold induction at 48 h, 10 µM ([1]; hepatocyte Lot 336, 10 µM) does the source give for `CCc1cc(Cl)c(OC)c(N2CCN(CC(O)CCNC(=O)c3cc4ccccc4[nH]3)CC2)c1` (stereo not drawn) [R-VK4-116, N-(4-(4-(3-chloro-5-ethyl-2-methoxyphenyl)piperazin-1-yl)-3-hydroxybutyl)-1H-indole-2-carboxamide] here?
A: 1.9

Q: What about the fold induction at 48 h, 0.01 µM ([1]; hepatocyte Lot 348B, 0.01 µM) of the same compound?
A: 0.98

Q: And the fold induction at 48 h, 0.1 µM ([1]; hepatocyte Lot 348B, 0.1 µM)?
A: 1.2

Q: What about the fold induction at 48 h, 1 µM ([1]; hepatocyte Lot 348B, 1 µM) of the same compound?
A: 1

Q: And the fold induction at 48 h, 3 µM ([1]; hepatocyte Lot 348B, 3 µM)?
A: 1.1

Q: What about the fold induction at 48 h, 5 µM ([1]; hepatocyte Lot 348B, 5 µM) of the same compound?
A: 1.1

Q: And the fold induction at 48 h, 10 µM ([1]; hepatocyte Lot 348B, 10 µM)?
A: 1.1

Q: And the fold induction at 48 h, 0.01 µM ([1]; hepatocyte Lot 399, 0.01 µM)?
A: 1.1

Q: And the fold induction at 48 h, 0.01 µM ([2]; hepatocyte Lot 336, 0.01 µM)?
A: 1

Q: What about the fold induction at 48 h, 0.1 µM ([2]; hepatocyte Lot 336, 0.1 µM) of the same compound?
A: 1

Q: And the fold induction at 48 h, 1 µM ([2]; hepatocyte Lot 336, 1 µM)?
A: 1.3

Q: And the fold induction at 48 h, 3 µM ([2]; hepatocyte Lot 336, 3 µM)?
A: 1.9

Q: What about the fold induction at 48 h, 5 µM ([2]; hepatocyte Lot 336, 5 µM) of the same compound?
A: 1.8

Q: What about the fold induction at 48 h, 0.1 µM ([2]; hepatocyte Lot 399, 0.1 µM) of the same compound?
A: 1.2

Q: What about the fold induction at 48 h, 1 µM ([2]; hepatocyte Lot 399, 1 µM) of the same compound?
A: 1.2

Q: And the fold induction at 48 h, 3 µM ([2]; hepatocyte Lot 399, 3 µM)?
A: 1.3

Q: What about the fold induction at 48 h, 5 µM ([2]; hepatocyte Lot 399, 5 µM) of the same compound?
A: 1.2

Q: What about the fold induction at 48 h, 10 µM ([2]; hepatocyte Lot 399, 10 µM) of the same compound?
A: 1.2

Q: What about the “CYP1A2 activity, Fold of Vehicle Control” value ([3]; Lot 336, 0.01 µM) of the same compound?
A: 0.96 fold

Q: And the Phenacetin-O- deethylation ([3]; Lot 336, 0.01 µM)?
A: 1.1 pmol/min/106 cells

Q: What about the “CYP1A2 activity, Fold of Vehicle Control” value ([3]; Lot 336, 0.1 µM) of the same compound?
A: 0.96 fold

Q: And the Phenacetin-O- deethylation ([3]; Lot 336, 0.1 µM)?
A: 1.1 pmol/min/106 cells

Q: What about the “CYP1A2 activity, Fold of Vehicle Control” value ([3]; Lot 336, 1 µM) of the same compound?
A: 1.2 fold

Q: And the Phenacetin-O- deethylation ([3]; Lot 336, 1 µM)?
A: 1.4 pmol/min/106 cells

Q: What about the “CYP1A2 activity, Fold of Vehicle Control” value ([3]; Lot 336, 3 µM) of the same compound?
A: 1.5 fold

Q: And the Phenacetin-O- deethylation ([3]; Lot 336, 3 µM)?
A: 1.8 pmol/min/106 cells

Q: What about the “CYP1A2 activity, Fold of Vehicle Control” value ([3]; Lot 336, 5 µM) of the same compound?
A: 1.6 fold

Q: What about the Phenacetin-O- deethylation ([3]; Lot 336, 5 µM) of the same compound?
A: 1.8 pmol/min/106 cells

Q: And the “CYP1A2 activity, Fold of Vehicle Control” value ([3]; Lot 336, 10 µM)?
A: 1.5 fold

Q: And the “CYP1A2 activity, Fold of Vehicle Control” value ([3]; Lot 348B, 0.01 µM)?
A: 0.92 fold

Q: And the “CYP1A2 activity, Fold of Vehicle Control” value ([3]; Lot 348B, 0.1 µM)?
A: 0.91 fold

Q: What about the “CYP1A2 activity, Fold of Vehicle Control” value ([3]; Lot 348B, 1 µM) of the same compound?
A: 0.99 fold

Q: And the “CYP1A2 activity, Fold of Vehicle Control” value ([3]; Lot 348B, 3 µM)?
A: 1.1 fold

Q: And the “CYP1A2 activity, Fold of Vehicle Control” value ([3]; Lot 348B, 5 µM)?
A: 1.1 fold

Q: What about the “CYP1A2 activity, Fold of Vehicle Control” value ([3]; Lot 348B, 10 µM) of the same compound?
A: 1.1 fold

Q: And the “CYP1A2 activity, Fold of Vehicle Control” value ([3]; Lot 399, 0.01 µM)?
A: 1.1 fold

Q: And the Phenacetin-O- deethylation ([3]; Lot 399, 0.01 µM)?
A: 8.8 pmol/min/106 cells

Q: And the “CYP1A2 activity, Fold of Vehicle Control” value ([3]; Lot 399, 0.1 µM)?
A: 1.1 fold

Q: What about the Phenacetin-O- deethylation ([3]; Lot 399, 0.1 µM) of the same compound?
A: 9.4 pmol/min/106 cells

Q: What about the “CYP1A2 activity, Fold of Vehicle Control” value ([3]; Lot 399, 1 µM) of the same compound?
A: 1.1 fold

Q: What about the Phenacetin-O- deethylation ([3]; Lot 399, 1 µM) of the same compound?
A: 9.3 pmol/min/106 cells

Q: What about the “CYP1A2 activity, Fold of Vehicle Control” value ([3]; Lot 399, 3 µM) of the same compound?
A: 1.2 fold

Q: What about the Phenacetin-O- deethylation ([3]; Lot 399, 3 µM) of the same compound?
A: 9.8 pmol/min/106 cells

Q: What about the “CYP1A2 activity, Fold of Vehicle Control” value ([3]; Lot 399, 5 µM) of the same compound?
A: 1.2 fold

Q: And the Phenacetin-O- deethylation ([3]; Lot 399, 5 µM)?
A: 10 pmol/min/106 cells

Q: And the “CYP1A2 activity, Fold of Vehicle Control” value ([3]; Lot 399, 10 µM)?
A: 1.1 fold

Q: What about the Phenacetin-O- deethylation ([3]; Lot 399, 10 µM) of the same compound?
A: 9.0 pmol/min/106 cells

Q: What about the “fold difference in mean uptake rate (substrate test)” value ([4]; MATE1, 1 μM, transporter cells vs control cells) of the same compound?
A: < 2 fold

Q: And the inhibition at 10 µM ([4]; human, polarized monolayer of MDCK-II cells expressing MATE1, MATE1, 0.1% BSA, 10 μM)?
A: 19.4 ± 7.57%

Q: And the CYP2C19 inhibition ([5]; up to 100 μM)?
A: did not inhibit CYP significantly

Q: What about the activity at 20 min, 0.1 µM ([5]; human, probe mephenytoin) of the same compound?
A: 102 ± 4.6%

Q: What about the activity at 20 min, 0.3 µM ([5]; human, probe mephenytoin) of the same compound?
A: 96.2 ± 5%

Q: And the activity at 20 min, 1 µM ([5]; human, probe mephenytoin)?
A: 97.3 ± 2.2%

Q: What about the activity at 20 min, 3 µM ([5]; human, probe mephenytoin) of the same compound?
A: 95.9 ± 3.6%

Q: What about the activity at 20 min, 10 µM ([5]; human, probe mephenytoin) of the same compound?
A: 99.6 ± 3.3%

Q: What about the activity at 20 min, 30 µM ([5]; human, probe mephenytoin) of the same compound?
A: 96.7 ± 3.5%

Q: What about the activity at 20 min, 60 µM ([5]; human, probe mephenytoin) of the same compound?
A: 95 ± 5.4%

Q: What about the activity at 20 min, 100 µM ([5]; human, probe mephenytoin) of the same compound?
A: 99.7 ± 3.4%

Q: And the fraction unbound at 2 h, 0.5 μM ([6]; read-out: % Bound (converted))?
A: 0.026

Q: What about the fraction unbound at 2 h, 0.5 μM ([6]; read-out: % Bound, Mean ± SD (converted)) of the same compound?
A: 0.028

Q: And the fraction unbound at 2 h ([6]; rat, dog, range over human, rat and dog plasma, read-out: bound to plasma proteins)?
A: 0.07 to 0.17

Q: What about the fraction unbound at 2 h, 1 μM [7] of the same compound?
A: 0.141

Q: What about the “% Bound” value ([8]; nominal 0.5 μM) of the same compound?
A: 96.9%

Q: And the “Ratio [R-VK4-116] Before Filtration / Eluate, Mean ± SD” value ([8]; nominal 0.5 μM)?
A: 0.988 ± 0.13

Q: And the “[R-VK4-116] Before Filtration” value ([8]; nominal 0.5 μM)?
A: 0.550 µM and 0.597 µM and 0.598 µM

Q: What about the “[R-VK4-116] In Sephadex G-25 Eluate” value ([8]; nominal 0.5 μM) of the same compound?
A: 0.520 µM and 0.715 µM and 0.557 µM

Q: And the “% Bound” value ([8]; nominal 1 μM)?
A: 92.5% and 81.6% and 83.7%

Q: What about the “Ratio [R-VK4-116] Before Filtration / Eluate” value ([8]; nominal 1 μM) of the same compound?
A: 1.50 and 1.62 and 1.55

Q: What about the “Ratio [R-VK4-116] Before Filtration / Eluate, Mean ± SD” value ([8]; nominal 1 μM) of the same compound?
A: 1.56 ± 0.06

Q: And the “[R-VK4-116] Before Filtration” value ([8]; nominal 1 μM)?
A: 0.923 µM and 0.995 µM and 1.02 µM

Q: And the “[R-VK4-116] In Sephadex G-25 Eluate” value ([8]; nominal 1 μM)?
A: 0.614 µM and 0.615 µM and 0.657 µM

Q: And the agonist effect [9]?
A: 97.71%
